ChEMBL document CHEMBL1201862, “PubChem BioAssay data set” (2004)
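A five-concentration, 48-hour dose response in 96-well plates underlies each endpoint, interpolated linearly between surrounding concentrations. Abbreviation: GI50, concentration required for 50% inhibition of growth.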 The source made the active and inactive calls. Rule as the data show it: active = GI50 up to about 1.1 µM and inactive = higher.

Experiments:
Assay in all cases: NCI anticancer screen, dose series, 48 h
SR = test system: SR
NCI/ADR-RES = test system: NCI/ADR-RES
T47D = test system: T47D
SNB-75 = test system: SNB-75
SK-MEL-5 = test system: SK-MEL-5
CAKI-1 = test system: CAKI-1
MCF7 = test system: MCF7
RPMI-8226 = test system: RPMI-8226
PC-3 = test system: PC-3
DU-145 = test system: DU-145
ACHN = test system: ACHN
TK-10 = test system: TK-10
MDA-MB-435 = test system: MDA-MB-435
DMS-273 = test system: DMS-273
KM-20L2 = test system: KM-20L2
DLD-1 = test system: DLD-1
M19-MEL = test system: M19-MEL
XF498 = test system: XF498
DMS-114 = test system: DMS-114
NCI-H522 = test system: NCI-H522

SMILES	GI50 (SR)	GI50 (NCI/ADR-RES)	GI50 (T47D)	GI50 (SNB-75)	GI50 (SK-MEL-5)	GI50 (CAKI-1)	GI50 (MCF7)	GI50 (RPMI-8226)	GI50 (PC-3)	GI50 (DU-145)	GI50 (ACHN)	GI50 (TK-10)	GI50 (MDA-MB-435)	GI50 (DMS-273)	GI50 (KM-20L2)	GI50 (DLD-1)	GI50 (M19-MEL)	GI50 (XF498)	GI50 (DMS-114)	GI50 (NCI-H522)
CSc1nc(N)c2c(-c3ccccc3)c3c(nc2n1)CCCC3	> 100 µM (inactive)	33 µM (inactive)	> 100 µM (inactive)	31.3 µM (inactive)	> 100 µM (inactive)	> 100 µM (inactive)	> 100 µM (inactive)	> 100 µM (inactive)	> 100 µM (inactive)	> 100 µM (inactive)	> 100 µM (inactive)	> 100 µM (inactive)	> 100 µM (inactive)	–	–	–	–	–	–	–
COCCOCOc1ccc(OCc2ccccc2)cc1	–	> 82.8 µM (inactive)	–	–	35 µM (inactive)	2.25 µM (inactive)	> 35.9 µM (inactive)	> 49.5 µM (inactive)	–	–	–	–	–	> 94.6 µM (inactive)	> 100 µM (inactive)	> 100 µM (inactive)	> 63.4 µM (inactive)	> 100 µM (inactive)	40.9 µM (inactive)	–
Cc1ccc(NC(=O)c2cccc([N+](=O)[O-])c2O)c(C)c1	22.3 µM (inactive)	–	–	23.5 µM (inactive)	–	6.97 µM (inactive)	–	11.6 µM (inactive)	–	–	16.8 µM (inactive)	–	–	–	21.5 µM (inactive)	14.3 µM (inactive)	24.4 µM (inactive)	–	20.1 µM (inactive)	7.06 µM (inactive)
Cc1ccccc1-c1nc2c(C(=O)NCCN(C)C)cccc2[nH]1	–	34.3 µM (inactive)	–	39.3 µM (inactive)	21.7 µM (inactive)	47.6 µM (inactive)	41 µM (inactive)	27.7 µM (inactive)	–	–	–	–	–	31.5 µM (inactive)	25.6 µM (inactive)	37.7 µM (inactive)	–	39.7 µM (inactive)	47.5 µM (inactive)	59.3 µM (inactive)
CC(C)(C)OC(=O)NCC(=O)NC1c2ccsc2/C(=N/O)[C@H]1O (stereo partly specified)	> 100 µM (inactive)	> 100 µM (inactive)	> 100 µM (inactive)	–	> 100 µM (inactive)	> 100 µM (inactive)	> 100 µM (inactive)	–	> 100 µM (inactive)	> 100 µM (inactive)	–	> 100 µM (inactive)	> 100 µM (inactive)	–	–	–	–	–	–	–
O=C1OC(c2ccc(O)c(F)c2)(c2ccc(O)c(F)c2)c2cccc3cccc1c23	8.04 µM (inactive)	24.7 µM (inactive)	–	–	> 25 µM (inactive)	2.79 µM (inactive)	1.79 µM (inactive)	17.2 µM (inactive)	3.09 µM (inactive)	> 25 µM (inactive)	> 25 µM (inactive)	> 25 µM (inactive)	> 25 µM (inactive)	–	–	–	–	–	–	–
COc1cc2c(cc1OC)C(C1(O)CCCCC1)NCC2 (stereo unspecified)	> 100 µM (inactive)	–	–	> 100 µM (inactive)	> 100 µM (inactive)	–	–	> 100 µM (inactive)	–	–	> 100 µM (inactive)	> 100 µM (inactive)	–	> 100 µM (inactive)	> 100 µM (inactive)	> 100 µM (inactive)	> 100 µM (inactive)	> 100 µM (inactive)	–	–
COc1cc2c(cc1Oc1ccc(OC)c3c1CC1c4c(cc(OC)c(OC)c4-3)CCN1C)CC1c3c(cc(OC)c(OC)c3-2)CCN1C (stereo unspecified)	–	4.51 µM (inactive)	–	2.26 µM (inactive)	1.64 µM (inactive)	2.1 µM (inactive)	3.08 µM (inactive)	0.221 µM (active)	–	–	–	–	–	1.02 µM (active)	0.957 µM (active)	2.23 µM (inactive)	1.74 µM (inactive)	1.98 µM (inactive)	–	2.09 µM (inactive)
COc1cc(Cc2ccc3c(c2C#N)N(C)c2ccccc2S3)cc(OC)c1OC	6.14 µM (inactive)	–	–	–	–	–	–	8.39 µM (inactive)	–	–	41.4 µM (inactive)	> 100 µM (inactive)	–	33.4 µM (inactive)	36.1 µM (inactive)	> 100 µM (inactive)	52.4 µM (inactive)	30.1 µM (inactive)	14.6 µM (inactive)	34.7 µM (inactive)
O=C1c2ccccc2OCC12OC21C=CC(Cl)=CC1 (stereo unspecified)	2.07 µM (inactive)	22.5 µM (inactive)	–	–	13.2 µM (inactive)	–	33.4 µM (inactive)	14.8 µM (inactive)	26.5 µM (inactive)	14.4 µM (inactive)	38.5 µM (inactive)	33.2 µM (inactive)	20.1 µM (inactive)	–	–	–	–	–	–	–
CS(=O)(=O)C(C#N)c1nc2ccccc2nc1Cl (stereo unspecified)	> 100 µM (inactive)	> 36.5 µM (inactive)	> 100 µM (inactive)	> 100 µM (inactive)	–	> 66.5 µM (inactive)	> 100 µM (inactive)	> 100 µM (inactive)	> 100 µM (inactive)	> 100 µM (inactive)	> 100 µM (inactive)	> 32.6 µM (inactive)	> 100 µM (inactive)	> 100 µM (inactive)	–	4.18 µM (inactive)	5.68 µM (inactive)	> 100 µM (inactive)	> 100 µM (inactive)	> 53.7 µM (inactive)
Cc1cc(NS(=O)(=O)c2ccc(NC(=O)c3cccc4c(Nc5ccc(S(N)(=O)=O)cc5)c5ccccc5nc34)cc2)no1	80.9 µM (inactive)	–	–	60 µM (inactive)	–	–	–	87.9 µM (inactive)	–	–	> 100 µM (inactive)	> 100 µM (inactive)	–	–	–	> 100 µM (inactive)	> 100 µM (inactive)	59.7 µM (inactive)	> 100 µM (inactive)	41.6 µM (inactive)
CC(=C/c1ccccc1)/C=C1/NC(=S)N(/C=C2\C(=O)Oc3ccccc3C2=O)C1=O	38.1 µM (inactive)	42.2 µM (inactive)	1.76 µM (inactive)	> 100 µM (inactive)	25.6 µM (inactive)	–	39.7 µM (inactive)	26.6 µM (inactive)	96.6 µM (inactive)	45.8 µM (inactive)	46 µM (inactive)	40.7 µM (inactive)	45.1 µM (inactive)	–	–	–	–	–	–	22.7 µM (inactive)
CC(=O)ON1C(=O)c2cccc3cccc(c23)C1=O	–	34.3 µM (inactive)	20.8 µM (inactive)	–	13.2 µM (inactive)	17.9 µM (inactive)	16 µM (inactive)	12.7 µM (inactive)	25.8 µM (inactive)	15.1 µM (inactive)	28.4 µM (inactive)	31.7 µM (inactive)	14.7 µM (inactive)	–	–	–	–	–	–	14.6 µM (inactive)
NC(=O)Oc1ccccc1 [CARBAMIC ACID PHENYL ESTER]	> 100 µM (inactive)	> 100 µM (inactive)	> 100 µM (inactive)	> 100 µM (inactive)	> 100 µM (inactive)	–	> 100 µM (inactive)	–	> 100 µM (inactive)	> 100 µM (inactive)	> 100 µM (inactive)	> 100 µM (inactive)	> 100 µM (inactive)	–	–	–	–	–	–	> 100 µM (inactive)
